Measured values from patent publication US9976183B2, “Biomarkers for cancers responsive to modulators of HEC1 activity” (TAIVEX THERAPEUTICS CORPORATION, priority 2011, dated 2018).

Tests used:
Format in all cases: cell-based
HeLa = experiment: Synergy of Hec1 inhibitor with cytotoxic drug (combination index, MTS)
Experimental: (§1) Synergy: GI50s for selected drugs were determined and used to calculate a concentration ratio for use synergy assays with Hec1 inhibitors. Cells were treated with drugs 24 hours after being seeded in appropriate seeding numbers into 96 well plates containing low glucose DME with 10% FBS. […] Cell viability was determined by MTS assay using a CellTiter 96® Aqueous non-radioactive cell proliferation assay system (Promega, Madison, Wis. 53711 USA) according to the manufacturer's instructions. Optical density was determined using a Bio-Tek 340 spectrophotometer (Bio-Tek, Winooski, Vt. 05404) and were then processed using Excel (Microsoft, Redmond, Wash. 98052-7329) and GraphPad Prism 5 linear regression software (GraphPad Software, La Jolla, Calif. 92037 USA) to determine concentration-response curves for calculating relative GI50s. Synergy was determined by calculating a combination index value using the formula CI (combination index)=(CA,X/ICx,A)+(CB,X/ICx,B), where CA,X and CB,X are the concentrations of drug A and drug B used in combination to achieve x % drug effect. ICx,A and ICx,B are the concentrations for single agents to achieve the same effect.
Hec1 inhibitor-responsive cancer cells used for screening were treated with a mixture of Hec1 inhibitor and select anti-cancer drug at appropriate concentration ratios and evaluated for cell viability.

[1] = test system: Nek2 in sensitive cell lines (HeLa, HCT116); experiment: Nek2 expression by immunoblotting; conditions: 48 hours, immunoblot (FIG. 6B)
Experimental: (§2) Immunoblots: Cell lysates were by incubation of cells in radioimmunoprecipitation assay (RIPA) buffer (50 mM Tris-HCl, pH7.4, 150 mM NaCl, 1% NP40, 0.25% DOC, 0.1% SDS, 1 mM NaVO4, 1 mM EDTA, 1 ug/ml leupeptin, 1 μg/ml pepstatin) or 2.5× sample buffer (50 mM Tris-HCl, pH6.8, 1% SDS, 2.5% BME, 7.5% Glycerol, Bromophenol blue). Tissue samples were immersed in RIPA buffer, disrupted with a homogenizer, and centrifuged to clarify. Samples were then subjected to SDS-PAGE, blotted onto immunoblotting membranes, and incubated with primary antibodies in 3% BSA-TBST. Horseradish peroxidase—conjugated secondary antibodies were used for protein detection by enhanced chemiluminescence (Millipore, Billerica, Mass. 01821 USA). The following antibodies were used for Western blotting: anti-Rb monoclonal antibody 1F8 (Abcam, Cambridge, Mass. 02139-1517 USA); anti-p53 monoclonal antibody (Santa Cruz Biotechnology, Santa Cruz, Calif. 95060 USA); anti-β-actin monoclonal antibody AC-15 (Sigma Aldrich, St. Louis, Mo., USA).
(§3) To investigate this possibility, drug-responsive (HeLa, MDA-MB-468, HCT116) and resistant cells (A549) were synchronized by starvation and expression of Hec1 and Nek2 characterized at 1(G1), 27(G27), 32(G32), and 48(G48) hours. Differential expression patterns between Hec1 and Nek2 are apparent, indicating differences in regulation of Hec1/Nek2 pathways (FIG. 6A). […]

[2] = test system: Nek2 in resistant cell line (A549); experiment: Nek2 expression by immunoblotting; conditions: A549, 48 hours, immunoblot (FIG. 6B)
Experimental: as §2, §3

[3] = test system: phosphorylated p73 in HeLa and A549 cells; experiment: Immunoblots for phosphorylated p73
Experimental: as §2
P73 is a member of the p53-family that mediates apoptosis and replaces p53 function in p53-deficient cells. […] To investigate this, drug-responsive (HeLa) and drug-resistant cells (A549) carrying mutant p53 proteins were treated with Hec1 inhibitor 110095 for varying lengths of time.

NCI/ADR-RES = experiment: Synergy of Hec1 inhibitor with cytotoxic drug (combination index, MTS); conditions: in combination with paclitaxel
Experimental: as §1
(§4) Drugs that can target pathways unreached by other current anti-cancer drugs have even better clinical potential to be incorporated into current therapeutic regimens. […] Hec1 inhibitor-responsive cancer cells used for screening were treated with a mixture of Hec1 inhibitor and select anti-cancer drug at appropriate concentration ratios and evaluated for cell viability. […] Table 9 summarizes the results of synergism studies on a number of cancer derived cell lines treated with Hec1 inhibitor 110001 in combination cytotoxic drugs.

K562R = experiment: as above; conditions: in combination with paclitaxel
Experimental: as §1, §4

MEX-SA/Dx5 = experiment: as above; conditions: in combination with paclitaxel
Experimental: as §1, §4

[4] = test system: wild-type p53 cells (A549, HCT116); experiment: p53 siRNA knockdown, sensitivity to Hec1 inhibitor (MTS); conditions: siRNA directed to p53 (sip53)
Experimental: (§5) Gene silencing: Cells were plated into the wells of 96 well plates in appropriate cell numbers and transfected by the siPort NeoFx transfection method (Life Technologies, Carlsbad, Calif. 92008 USA) according to manufacturer instructions, maintained for 24 hours, then treated with drug. Cells were incubated in drug treated medium for 48 hours then analyzed by MTS assay. Control siRNA Life Technologies, Carlsbad, Calif. 92008; Cell Signaling Technology, Danvers, Mass. 01923 USA; and Santa Cruz Biotechnology, Santa Cruz, Calif. 95060 USA), Rb siRNA (#1: Life Technologies, Carlsbad, Calif. 92008 USA; #2: Santa Cruz Biotechnology, Santa Cruz, Calif. 95060 USA) and p53 siRNA (#1: Cell Signaling Technology, Danvers, Mass. 01923 USA; #2: Cell Signaling Technology, Danvers, Mass. 01923 USA) were used. Cells were treated with drugs 24 hours after seeding and incubated with the drugs for 48 hours before MTS assay. The MTS assay was performed according to the manufacturer's instructions (Promega, Madison, Wis. 53711 USA).
(§6) Cells were analyzed for viability and cellular sensitivity expressed in GI50 (nM). RNA from transfected cells were also analyzed for p53 RNA level by quantitative real time PCR. […] Cellular sensitivity is expressed as percent growth inhibition relative to non-drug-treated cells. […]

[5] = test system: cells with mutated p53 (MDA-MB-231); experiment: as above; conditions: siRNA directed to p53 (sip53)
Experimental: as §5, §6

Compound	Combination Index (HeLa; in combination with Taxol)	Combination Index (HeLa; in combination with doxorubicin)	Combination Index (HeLa; in combination with topotecan)	Nek2 expression [1]	Nek2 expression [2]	time of peak p73 phosphorylation after drug treatment ([3]; immunoblot (FIG. 5A))	phosphorylation of p73 ([3]; immunoblot, treated for varying lengths of time, 200 nM (FIG. 5A))	Combination Index (NCI/ADR-RES)	Synergy (NCI/ADR-RES)	Combination Index (K562R)	Synergy (K562R)	Combination Index (MEX-SA/Dx5)	Synergy (MEX-SA/Dx5)	effect of p53 silencing on cellular sensitivity (GI50) [4]	effect of p53 silencing on cellular sensitivity (GI50) [5]
COCCOc1cnc(Sc2cc(C)c(-c3csc(NC(=O)c4ccncc4)n3)c(C)c2)cn1 [compound 110095, N-(4-(4-(5-(2-methoxyethoxy)pyrazin-2-ylthio)-2,6-dimethylphenyl)thiazol-2-yl)isonicotinamide]	1.22	1.55	1.90	degradation of Nek2	this effect is not seen	48 h	induced time-dependent phosphorylation of p73	0.82	Yes	0.65	Yes	1.41	No	–	–
COc1ccc(Oc2cc(C)c(-c3csc(NC(=O)c4ccncc4)n3)c(C)c2)cc1 [compound 101001, N-(4-(4-(4-methoxyphenoxy)-2,6-dimethylphenyl)thiazol-2-yl)isonicotinamide]	–	–	–	–	–	–	–	–	–	–	–	–	–	decreased GI50	not observed
